The source of these data is PMC7984888, “Inhibitory Activity of Pyrroloisoxazolidine Derivatives against Chlamydia trachomatis” (BioMed Research International, 2021).

Broadly, the IC50 is the concentration at which inhibition is half-maximal. One may read the viability as a read-out of living cells in per cent, often relative to untreated cells.

Where two headings read alike, the source gives them in different places.

The test system of series [1] is C. trachomatis L2. Nature of the series: Period incubation assay. It is filed as cell-based, Chlamydia trachomatis. To be noted: progeny EBs at 36 hpi; for Inhibitory effect, treated at 0-2 h: 32 μM, 0-2 h period; for Production of infectious progenies, compound added during the 12-24 h period: 2, 8 or 32 μM. The protocol: HeLa cells seeded in 48-well plate were infected with C. trachomatis L2 at an MOI of 0.2 and treated with 2, 8, or 32 μM of compound during 0-2, 2-12, 12-24, and 24-36 h period. At 36 hpi, the production of infectious progeny EBs and percent inhibition data were determined as above.  Figure 7 Period incubation assay. (a) HeLa cells infected with C. trachomatis L2 were treated with 2, 8, or 32 μM individual compound for indicated times. The production of progeny EBs was determined at 36 hpi. (b–d) Percent inhibition of progeny EBs was calculated based on data in compound-treated samples relative to DMSO-treated control. Data are presented as mean ± SD of three independent assays.

Series [2] has as its system C. trachomatis L2. As to the kind of experiment: Host cell pretreatment assay. The format is cell-based, Chlamydia trachomatis. To be noted: 2, 8 and 32 μM, 37°C, 1 h (also 4 h) prior to infection. The protocol: Cells seeded in 48-well plate were incubated with 2, 8, or 32 μM individual compound at 37°C for indicated times. After twice washing with SPG to remove residual compound, cells were infected with EBs at an MOI of 0.2. At 36 hpi, the inclusion count in each well was determined by immunofluorescence staining as above.
Chlamydia trachomatis has a unique EB/RB biphasic life cycle, which offers the infection steps and the intracellular proliferation period for therapeutic intervention. To explore whether the compounds affected the chlamydial infection steps, the HeLa cells or EBs were pretreated with compound prior to infection, and then the influence on EB entry efficiency was analyzed by counting inclusion numbers. Due to the relative easier for culture and shorter developmental cycle, C. trachomatis L2 is commonly represented as a laboratory model for C. trachomatis in cell culture research and is picked for our subsequent mechanism study.
Figure 3 Host cells were not involved in the compounds' antichlamydial activity. HeLa cells were incubated with 2, 8, or 32 μM compound 1 (a) or 2 (b) at 37°C for 1 or 4 h. After washes, cells were infected with EBs. At 36 hpi, the inclusion was counted as described in “Materials and Methods.” Data are presented as mean ± SD of three independent assays.

Series [3] relates to Chlamydia trachomatis serovar D (strain UW-3/CX). As to the kind of experiment: Infectious progeny inhibition assay, C. trachomatis D. It is filed as cell-based. To be noted: generation of infectious progeny EBs in HeLa cells, MOI 0.2, 36 hpi, 1 to 32 μM, read-out: IC50 (μM) Mean (95% confidence interval) Ct D. The protocol: Chlamydia trachomatis serovars D (strain UW-3/CX) and L2 (strain 434/Bu) were purchased from ATCC. HeLa cells purchased from ATCC were routinely cultured in DMEM supplemented with 10% heat-inactivated FBS (Sigma-Aldrich) and 10 μg/mL gentamicin at 37°C in a humidified atmosphere of 5% and were used for chlamydial propagation and cell culture experiments. EBs were purified by Renografin density gradient and stored in sucrose-phosphate-glutamate (SPG) buffer at -80°C [20]. A mouse polyclonal anti-MoPn (C. muridarum strain Nigg II) antibody, which was produced in our laboratory and cross-reacting with C. trachomatis D and L2, was used as a primary antibody for both stains detection.
Cell monolayers seeded onto coverslips in a 24-well plate were infected with C. trachomatis at a multiplicity of infection (MOI) of 0.2 inclusion-forming units (IFU) per cell. Unless noted, individual compound was added into culture medium at indicated concentrations simultaneously at the time of inoculation. 0.5% DMSO was used as negative control and 11.25 μM tetracycline (Sigma-Aldrich) as positive control. For C. trachomatis D, an additional centrifugation (900 × g at room temperature for 1 h) was applied to facilitate the infection. At 36 hours postinfection (hpi), infected cells were fixed by precooled methanol and then subjected to sequential staining processed with a primary antibody and a FITC-conjugated secondary antibody. Evans blue was used as cytoplasm counterstain. Images were shot by an Olympus IX51 fluorescence microscope.
Cells monolayers seeded in 48-well plate were infected and treated with chemicals as above. After incubation for 36 hours, infected cells were washed twice, scraped off, and lysed by sonication to release the infectious progeny EBs. Then the lysates were used to reinfect fresh cell monolayers grown in 96-well plate following 1 : 10 serial dilution. The inclusion counts were obtained by immunofluorescence staining as above to calculate the number of infectious progeny EBs in each sample. Percent inhibition was calculated based on EB counts in compound-treated samples relative to DMSO-treated negative control.
Data from the three independent experiments were presented as mean ± standard deviations (SD) and were subjected to pairwise Student's t-tests. p < 0.05 and p < 0.01 are considered statistically significant and statistically highly significant, respectively. The IC50 values, defined as the concentration of compound at which the generation of infectious progeny EBs was reduced by 50% relative to negative control, were calculated by nonlinear regression from percent inhibition data using the GraphPad Prism 5 software, and presented as mean (95% confidence interval).

The test system of series [4] is Chlamydia trachomatis L2 EBs. Nature of the series: Elementary body pretreatment assay. The format is cell-based. Particulars: for EB entry efficiency after EB pretreatment for 4 h: 32 μM, 4°C; for EB counts that enter into host cells after EB pretreatment for 1 h: 2, 8 and 32 μM, 37°C and 4°C. The protocol: Chlamydia trachomatis L2 EBs suspended in SPG at 4 x 10^5 IFU/mL were exposed to 2, 8, or 32 μM individual compound at 37°C or 4°C for indicated times. EBs then were washed twice to eliminate the residual chemical and were immediately loaded onto HeLa cell monolayers at an MOI of 0.2. The infective EB count was measured by quantifying inclusion numbers at 36 hpi using immunofluorescence staining as above.  Figure 4 Compounds 1 and 2 weakly attenuated the EB infectivity. Chlamydia trachomatis L2 EBs were incubated with 2, 8, or 32 μM compound 1 (a) or 2 (b) at 37°C or 4°C for 1 or 4 h. After washes, EBs were used to infect HeLa cell. At 36 hpi, the inclusion was counted as described in “Materials and Methods.” Data are presented as mean ± SD of three independent assays. ∗∗p < 0.01, compared 4°C with 37°C by Student's t-tests. ^#p < 0.05, compared with each DMSO control sample by Student's t-tests.

Another series in a line: WST-1 cell viability. The format is cell-based. To be noted: human, uninfected HeLa cells, WST-1, relative to DMSO control as 100%. The protocol:
(§1) Uninfected HeLa cells were cultured with 32 μM (the highest concentration used in antichlamydial analysis) of individual compound or 0.5% DMSO for 48 h. After 10 μL of WST-1 reagent was added, cells were incubated for an additional 1 h, and absorbance at 450 nm was recorded. The viability of compound-treated cells was calculated by the absorbance relative to that of DMSO control setting as 100% [22].
For orientation: Tetrazolium assays rely on reduction of a dye to a coloured formazan, in cell work by metabolically active cells.

A further series deals with Uninfected HeLa cells. As to the kind of experiment: WST-1 cell viability. Particulars: 32 μM, 48 h. The format is cell-based. The protocol: as §1

`c1ccc(C2C3CC(c4ccccc4)N(c4ccccc4)C3ON2c2ccccc2)cc1` (stereo not shown) [Compound 1]: in the series on C. trachomatis L2 [1], the “Inhibitory effect, treated at 0-2 h” value is “weak inhibitory effect”; the “Production of infectious progenies, compound added during the 12-24 h period” value is on record as “significantly inhibited”; the “Intracellular chlamydial growth, 2-12 h period treatment” value is “partially prevented”; the “Infectious progeny EBs, 24-36 h period incubation” value is on record as “partially inhibited”. Further, in the series with C. trachomatis L2 [2], the “Formation of chlamydial inclusions after pretreatment of HeLa cells” value is reported as “did not reduce”. In addition, the half-maximal inhibitory concentration (IC50) in series [3] (Chlamydia trachomatis, HeLa) is less than 10 µM. Also, the half-inhibitory concentration (IC50) in series [3] turned out to be 9.31 µM. In series [4], the “EB entry efficiency after EB pretreatment for 4 h” value is on record as “slightly dropped” and the “EB counts that enter into host cells after EB pretreatment for 1 h” value was “did not change”. In “WST-1 cell viability”, the viability at 48 h, 32 µM came out at 101%. Also, in the series on Uninfected HeLa cells, the “Effect on host cell viability / proliferation activity by WST-1, in words” value is listed as “did not show cytotoxicity”.

As to `Clc1ccc(N2C(c3ccccc3)CC3C(c4ccccc4)N(c4ccccc4)OC32)cc1` (stereo not shown) [Compound 2], in the series with C. trachomatis L2 [1], the “Inhibitory effect, treated at 0-2 h” value is “weak inhibitory effect”; the “Production of infectious progenies, compound added during the 12-24 h period” value was “significantly inhibited”; the “Intracellular chlamydial growth, 2-12 h period treatment” value is “partially prevented”; the “Infectious progeny EBs, 24-36 h period incubation” value is “partially inhibited”. Besides, the “Formation of chlamydial inclusions after pretreatment of HeLa cells” value in the series with C. trachomatis L2 [2] is reported as “did not reduce”. Also, the IC50 in series [3] (Chlamydia trachomatis, HeLa) was less than 10 µM. The IC50 in series [3] was found to be 9.73 µM. For the same molecule, in series [4], the “EB entry efficiency after EB pretreatment for 4 h” value was “slightly dropped” and the “EB counts that enter into host cells after EB pretreatment for 1 h” value was “did not change”. Moreover, the viability at 48 h, 32 µM in the series “WST-1 cell viability” worked out at 98.3%. Moreover, the “Effect on host cell viability / proliferation activity by WST-1, in words” value in the series on Uninfected HeLa cells is reported as “did not show cytotoxicity”.
